{"source": "paper PMC12595434", "about": "“Development of retinoid nuclear receptor pathway antagonists through targeting aldehyde dehydrogenase 1A3” (iScience, 2025)", "key": {"[1]": {"target": "T1, human ALDH1A3 in A375 cells (Homo sapiens, UniProt P47895)", "T1 construct": "the cell lines with high endogenous ALDH1A3 activity: MDA-MB-468 (triple-negative breast cancer), A375 (melanoma), and LN229 (glioblastoma); endogenous in cells; host or cells: A375", "T1 sequence (P47895 1-512)": "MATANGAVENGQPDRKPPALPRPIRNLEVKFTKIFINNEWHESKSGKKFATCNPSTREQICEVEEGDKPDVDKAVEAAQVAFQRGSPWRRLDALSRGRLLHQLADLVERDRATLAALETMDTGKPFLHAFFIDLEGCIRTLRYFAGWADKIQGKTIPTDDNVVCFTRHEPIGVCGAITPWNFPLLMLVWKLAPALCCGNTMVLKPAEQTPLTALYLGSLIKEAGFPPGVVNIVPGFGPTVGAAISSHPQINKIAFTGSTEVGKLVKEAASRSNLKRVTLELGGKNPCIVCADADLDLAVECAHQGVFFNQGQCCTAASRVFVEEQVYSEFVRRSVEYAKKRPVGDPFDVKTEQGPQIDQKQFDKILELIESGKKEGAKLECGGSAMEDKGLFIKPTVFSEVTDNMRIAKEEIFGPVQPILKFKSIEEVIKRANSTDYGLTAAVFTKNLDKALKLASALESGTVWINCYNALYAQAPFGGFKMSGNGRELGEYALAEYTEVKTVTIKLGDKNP", "experiment": "Aldefluor assay in A375 cells", "type": "cell-based", "details": "up to 10 μM"}, "ALDH1A3 [2]": {"target": "T2, ALDH1A3 (Homo sapiens, UniProt P47895)", "T2 sequence (P47895 1-512)": "T1 sequence (P47895 1-512)", "experiment": "Recombinant enzyme activity assay", "type": "biochemical", "set-up": "made in house; host or cells: BL21-DE3 E. coli", "details": "dose titration, up to 10 μM"}, "ALDH1A1 in HepG2 cells": {"target": "T3, ALDH1A1 in HepG2 cells (Homo sapiens, UniProt P00352)", "T3 construct": "endogenous in cells; host or cells: HepG2", "experiment": "Aldefluor assay in HepG2 cells", "type": "cell-based", "details": "45 min incubation at 37°C", "method": "In addition, cells were suspended at a concentration of 100,000 cells per mL. Finally, DMSO was added to at 1% final in all cells to improve kinetics of the assay. For compound titrations, concentrated compound stock was added first to tubes and a uniform Aldefluor buffer containing the cell suspension was added to dilute to final volumes. Cells were analyzed by a BD LSRII for flow cytometry and were sorted using a FACSAria Fusion cell sorter (BD Biosciences) equipped with a 70 micron nozzle. Sample and sort collection tubes were kept at 4°C. […] DAPI was used as a live-dead indicator."}, "human ALDH1A1": {"target": "T4, human ALDH1A1 (Homo sapiens, UniProt P00352)", "T4 construct": "made in house; host or cells: BL21-DE3 E. coli", "T4 sequence (P00352 1-501)": "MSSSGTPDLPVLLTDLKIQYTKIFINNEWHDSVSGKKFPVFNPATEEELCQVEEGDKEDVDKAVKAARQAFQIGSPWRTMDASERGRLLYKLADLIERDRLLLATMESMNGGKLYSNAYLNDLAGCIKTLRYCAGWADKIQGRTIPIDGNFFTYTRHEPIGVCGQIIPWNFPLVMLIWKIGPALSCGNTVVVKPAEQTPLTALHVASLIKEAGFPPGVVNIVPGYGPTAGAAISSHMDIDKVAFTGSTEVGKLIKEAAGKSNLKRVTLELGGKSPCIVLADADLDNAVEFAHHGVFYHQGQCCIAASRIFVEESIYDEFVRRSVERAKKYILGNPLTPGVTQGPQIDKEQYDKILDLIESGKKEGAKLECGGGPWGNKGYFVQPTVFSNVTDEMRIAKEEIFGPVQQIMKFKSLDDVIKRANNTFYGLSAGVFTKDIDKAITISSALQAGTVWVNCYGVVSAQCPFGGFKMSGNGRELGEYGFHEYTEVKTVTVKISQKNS", "experiment": "Recombinant enzyme activity assay", "type": "biochemical", "details": "dose titration, up to 10 μM"}, "human ALDH1A2": {"target": "T5, human ALDH1A2 (Homo sapiens, UniProt O94788)", "T5 construct": "made in house; host or cells: BL21-DE3 E. coli", "T5 sequence (O94788 1-518)": "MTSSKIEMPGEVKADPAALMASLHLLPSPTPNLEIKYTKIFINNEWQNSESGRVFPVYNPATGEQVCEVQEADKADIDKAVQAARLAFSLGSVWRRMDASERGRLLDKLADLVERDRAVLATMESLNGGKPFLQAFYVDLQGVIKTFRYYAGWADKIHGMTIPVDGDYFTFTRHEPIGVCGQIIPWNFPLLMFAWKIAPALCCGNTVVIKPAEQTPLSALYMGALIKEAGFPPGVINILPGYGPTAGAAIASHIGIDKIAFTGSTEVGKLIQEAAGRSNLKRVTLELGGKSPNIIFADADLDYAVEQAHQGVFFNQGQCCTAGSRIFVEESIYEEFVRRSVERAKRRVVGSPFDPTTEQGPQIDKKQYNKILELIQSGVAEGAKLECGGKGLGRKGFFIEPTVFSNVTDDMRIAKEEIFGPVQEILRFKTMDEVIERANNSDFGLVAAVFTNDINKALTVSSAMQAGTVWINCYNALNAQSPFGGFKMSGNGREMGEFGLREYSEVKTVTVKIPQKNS", "experiment": "Recombinant enzyme activity assay", "type": "biochemical", "details": "dose titration, up to 10 μM", "method": "Human and mouse ALDH enzymes were cloned from respective reference RNA, constructed into plasmids using restriction enzyme cloning and confirmed by Sanger Sequencing. Genes were cloned into a vector containing the T7 promoter for bacterial expression and into a lentiviral expression vector for cell line expression as previously described.[78] Recombinant protein was isolated by inducing BL21-DE3 E. coli (Thermo Fisher) containing the respective plasmid for 20 h at room temperature, shaking, with 300 μM IPTG (Selleck Chem). Cell disruption was achieved via ultrasonication (Φ10, 3s on/6s off, 25min) in 1L of amplified bacterial culture. The target protein was then purified using Ni NTA beads 6FF affinity chromatography. Lysis buffer consisted of 50 mM Na2HPO4, 300 mM NaCl, 1 mM β-ME, pH7.5. The column (2 mL) was washed with 50 mM Na2HPO4, 300 mM NaCl, 1 mM β-ME, 20 mM Imidazole, pH7.5. Elution was performed using 3 mL of 50 mM Na2HPO4, 300 mM NaCl, 1 mM β-ME, 250 mM Imidazole, pH7.5. Following affinity chromatography, the protein underwent further purification via Gel filtration chromatography using a Superdex200 column. Aliquots were quality controlled against a pure internal standard enzyme and/or by western blot to confirm enzyme expression. Purified enzyme was used for biochemical and biophysical assays.\nFor the recombinant enzyme activity assay, enzyme aliquots were thawed on ice for 4 h prior to analysis and the protocol was performed as described[8] with the following key changes: 1) Final concentrations of NAD+ (Gold Bio) were 200 μM and BSA were 1 mg/mL 2) Propanaldehyde was used as the substrate for ALDH1A1 and ALDH2. 3) Reaction velocity was monitored through diaphorase (clostridium) coupled reduction of resazurin (100 μM) monitored with ex/em of 560nm/590 nm in order to regenerate NAD+ and thus maintain constant cofactor concentration as well as to avoid high absorbance values of many screening compounds at the NADH absorbance. Assays were conducted at room temperature (controlled to 21-23C) and all buffers were maintained at pH 7.5. For all reactions, pre-incubation time was approximately 2 min while the reaction monitoring was performed over 10 min."}, "ALDH1A3 [3]": {"test_system": "ALDH1A3", "details": "read-out: reported IC50 for ALDH1A3; cited from earlier work"}, "ALDH1A3 cells": {"test_system": "ALDH1A3 cells", "details": "cited from earlier work"}, "MDA-MB-468 cells": {"test_system": "MDA-MB-468 cells", "details": "MDA-MB-468, 24 hour incubation, highest tested dose 10 μM"}, "HaCaT cells": {"test_system": "HaCaT cells", "experiment": "Dose-titration cytotoxicity analysis", "details": "24 hour incubation, highest tested dose 10 μM"}}, "data": [{"compound": "CSC(=O)C#CC(C)(C)N(C)C", "note": "[DIMATE, S-methyl 4-(dimethylamino)-4-methyl-pent-2-ynethioate]", "values": [{"measurement": "activity in Aldefluor assay, A375 cells (in words)", "setting": "[1]", "value": "no dose-dependent inhibition of activity"}, {"measurement": "inhibitory activity against ALDH1A3 (in words)", "setting": "ALDH1A3 [2]", "value": "did not show any activity"}, {"measurement": "inhibition at 10 µM", "setting": "ALDH1A1 in HepG2 cells", "value": 13, "unit": "%"}, {"measurement": "inhibitory activity against ALDH1A1 (in words)", "setting": "human ALDH1A1", "value": "did not show any activity"}, {"measurement": "inhibitory activity against ALDH1A2 (in words)", "setting": "human ALDH1A2", "value": "did not show any activity"}]}, {"compound": "c1ccc(-c2ccc3nc(-c4ccccc4)cn3c2)cc1", "note": "[GA11]", "values": [{"measurement": "IC50", "setting": "ALDH1A3 [3]", "value": 660, "unit": "nM"}, {"measurement": "reported cytotoxic activity against ALDH1A3 cells (in words)", "setting": "ALDH1A3 cells", "value": "picomolar"}, {"measurement": "inhibitory activity against ALDH1A3 (in words)", "setting": "ALDH1A3 [2]", "value": "no ALDH1A3 inhibitory activity up to 10 μM"}, {"measurement": "inhibitory activity against ALDH1A1 (in words)", "setting": "human ALDH1A1", "value": "no activity up to 10 μM"}, {"measurement": "nonspecific cytotoxicity (in words)", "setting": "MDA-MB-468 cells", "value": "potent cytotoxicity above 100 nM"}, {"measurement": "inhibitory activity against ALDH1A2 (in words)", "setting": "human ALDH1A2", "value": "no activity up to 10 μM"}, {"measurement": "nonspecific cytotoxicity (in words)", "setting": "HaCaT cells", "value": "potent cytotoxicity above 100 nM"}]}, {"compound": "CCOC(=O)c1ncn2c1CN(C)C(=O)c1cc(F)ccc1-2", "note": "[flumazenil]", "values": [{"measurement": "inhibition", "setting": "GABAA", "value": 95.9, "unit": "%"}]}]}
